Experimental data taken from article PMC5325082 (Molecular Pharmacology, 2017).

How the values were obtained:
[1] = target: T1, α9χα10χ (α9 and α10 extracellular domains fused to 5-HT3A) (UniProt P23979+P43144+Q9JLB5, L231I/L232I); assay: [3H]-α-BTX radioligand binding, membranes of transfected tsA201 cells; set-up: species or system rat
T1 construct: the extracellular N-terminal domain of the α9 or α10 subunit; expressed in transfected cells; host or cells: tsA201 cells (HEK293-derived), membrane preparation
Description: (§1) Chimeric subunit cDNAs containing the extracellular N-terminal domain of the α9 or α10 subunit fused to the transmembrane and intracellular domain of the mouse 5-HT3A subunit have been described previously ([Baker et al., 2004]). The mammalian cell line tsA201 (derived from the human embryonic kidney 293 cell line) was obtained from Dr. William Green (University of Chicago, Chicago). Cells were cultured in Dulbecco’s modified Eagle’s medium (Invitrogen, Paisley, United Kingdom) containing 2 mM L-GlutaMAX (Invitrogen) plus 10% heat-inactivated fetal calf serum (Sigma, Poole, United Kingdom) with penicillin (100 U/ml) and streptomycin (100 µg/ml) and were maintained in a humidified incubator containing 5% CO2 at 37°C. Cells were transiently transfected using Effectene transfection reagent (QIAGEN, Crawley, United Kingdom) according to the manufacturer’s instructions. In all cases, cells were transfected overnight and assayed for expression approximately 40–48 hours after transfection. To ensure that the levels of radioligand binding were not influenced by differences in the amount of subunit cDNA expressed, the amount of each subunit plasmid DNA and also the total amount of plasmid DNA were kept constant when subunits were expressed singly and in combination. This was achieved by the inclusion of empty plasmid expression vector when single subunits were transfected.
(§2) Binding studies with [^3H]-α-bungarotoxin (α-BTX) in cell membrane preparations were performed essentially as described previously ([Lansdell and Millar, 2000]; [Harkness and Millar, 2002]). Membranes (typically, 10–100 µg of protein) were incubated with radioligand (final concentration 20 nM) for 150 minutes at 4°C in a total volume of 300 µl in the presence of protease inhibitors leupeptin (2 µg/ml) and pepstatin (1 µg/ml). Our standard protocol for determining nonspecific binding was the addition of 1 mM carbachol, 1 mM nicotine, and 10 µM methyllycaconitine to triplicate samples. […] In all cases the levels of specific binding were determined by subtracting the level of nonspecific binding from the total binding (both of which were determined in triplicate). The data were determined as means of three independent experiments, each performed in triplicate. Radioligand binding was assayed by filtration onto 0.5% polyethylenimine-presoaked Whatman GF/B filters (Sigma-Aldrich, Dorset, England) followed by rapid washing (typically, five washes, each of 4 ml) with ice-cold 10 mM phosphate buffer using a Brandel cell harvester, and radioactivity was determined by scintillation counting. […] Protein concentrations were determined using bovine serum albumin standards (Bio-Rad, Hercules, CA).

α9χα10χW55T = target: T2, α9χα10χW55T (UniProt P23979+P43144+Q9JLB5, L231I/L232I/W81T); assay: as above; set-up: species or system rat
T2 construct: containing the extracellular N-terminal domain of the α9 or α10 subunit fused to the transmembrane and intracellular domain of the mouse 5-HT3A subunit; mouse 5-HT3A subunit transmembrane and intracellular domain (fusion partner); expressed in transfected cells; host or cells: tsA201 (derived from human embryonic kidney 293), transient transfection; membrane preparations
Description: as §1, §2

α9χY190T (homomeric) = format: binding, rat
α10χY190T (homomeric) = format: binding, rat
[2] = tested on: α9χY190Tα10χY190T (heteromeric double mutant); format: binding, rat
α9χY190Tα10χ = format: binding, rat
α9χα10χY190T = format: binding, rat
[3] = tested on: homomeric α9χW55T receptors; format: binding, rat
[4] = tested on: homomeric α10χW55T receptors; format: binding, rat
homomeric α10χ = homomeric α10χ (UniProt P23979+Q9JLB5, L231I/L232I); format: binding, rat
α9χW55Tα10χ = α9χW55Tα10χ (UniProt P23979+P43144+Q9JLB5, L231I/L232I/W82T); format: binding, rat
α9χW55Tα10χW55T = format: binding, rat

## α-bungarotoxin [[^3H]-α-BTX]
[1]
  Specific binding of [3H]-α-BTX, fold higher than α9χ expressed alone: 6 fold
α9χα10χW55T
  Specific binding of [3H]-α-BTX: specific binding levels similar to those observed with wild-type heteromeric α9χα10χ receptors
α9χY190T (homomeric)
  Specific binding of [3H]-α-BTX: complete loss of specific binding
α10χY190T (homomeric)
  Specific binding of [3H]-α-BTX: complete loss of specific binding
[2]
  Specific binding of [3H]-α-BTX: complete loss of specific binding
α9χY190Tα10χ
  Specific binding of [3H]-α-BTX, fold higher than homomeric α10χ: 4 fold
  Specific binding of [3H]-α-BTX, fold lower than wild-type α9χα10χ: 6 fold
α9χα10χY190T
  Specific binding of [3H]-α-BTX, fold lower than wild-type α9χα10χ: 4 fold
[3]
  Specific binding of [3H]-α-BTX: no detectable specific binding
[4]
  Specific binding of [3H]-α-BTX: 2.5 ± 0.6 fmol/mg
Homomeric α10χ
  Specific binding of [3H]-α-BTX: 1.4 ± 0.5 fmol/mg
α9χW55Tα10χ
  Specific binding of [3H]-α-BTX: binding levels similar to those observed with either α10χ or α10χW55T when expressed alone
α9χW55Tα10χW55T
  Specific binding of [3H]-α-BTX: binding levels similar to those observed with either α10χ or α10χW55T when expressed alone
